From patent publication US9382230B2, “Methods and compositions for modulating Ire1, SRC and ABL activity” (The Regents of the University of California, priority 2008, dated 2016)

Assays:
WT Src = WT Src (Homo sapiens, UniProt P12931); assay: c-Src kinase cross-reactivity assay; type: biochemical
Procedure: (§1) Assays for cross-reactivity with Src and Abl were also conducted. Purified c-Src or Abl were diluted in kinase reaction buffer (10 mM HEPES (pH 7.2), 10 mM MgCl2, 0.2 mM DTT) to a concentration of approximately 10 nM and pre-incubated with 1 mg/mL BSA, 2.5% (v/v) DMSO, 133 μM peptide (sequence EAIYAAPFKKK for Abl and EIYGEFKKK for c-Src), and varying concentrations of inhibitor. Kinase reactions were initiated by the addition of […] cold ATP supplemented with 5 mCi γ^32P ATP and allowed to proceed at room temperature (RT). At 10 minutes […] of the reactions were spotted onto phosphocellulose sheets (P81, Whatman) and subsequently soaked in was buffer (1.0% (v/v) phosphoric acid). The sheets were washed five times in buffer, dried, and transferred radioactivity was measured by phosphorimaging using a Typhoon™ scanner (Molecular Dynamics). Radioactive counts were quantified using ImageQuant software, and titration data were fit to a sigmoidal dose response to derive IC50 values using the Prism® software package. Dose responses were based on a 12 point inhibitor titration, using ⅓ dilutions starting from […].

human Ire1 = human Ire1 (Homo sapiens, UniProt O75460); assay: In vitro cleavage of 32P-stem-loop RNA by human Ire1; type: biochemical; conditions: AD series of Ire1 modulators
Procedure: (§2) RNA cleavage reactions were conducted at 30° C. in buffer containing 20 mM HEPES (pH 7.5), 70 mM NaCl, 2 mM ADP (pH 7.0), 2 mM Mg(OAc)2, 5 mM DTT, 5% glycerol, less than 1 nM ^32p-labeled RNA substrate, and 3 nM-20 μM Ire1. Reaction solutions and buffers were designed using Biochem Lab Solutions 3.5. Reactions were prepared such that 1 μl of RNA was added to 9 μl of pre-warmed reaction mixture containing all components except RNA. Typically, 3-10 minute time courses were collected starting from 5 seconds for the first time point. At time intervals, 1 μl of solution was withdrawn from each reaction and mixed wish 6 μl stop solution containing 10 M urea, 0.1% SDS, 0.1 mM EDTA, 0.05% xylene cyanol, and 0.05% bromophenol blue. The samples were separated by a denaturing 10% PAGE and exposed on a phosphor storage screen. The screens were scanned on a Storm or a Typhoon instrument and quantified using ImageQuant 5.0 or GelQuant.NET 1.4 programs. The data were plotted and fit in SigmaPlot 6.0.
In vitro cleavage of ^32P-stem-loop RNA by human Ire1, with AD series of Ire1 modulators gave the following results: […]

WT Abl = WT Abl (Homo sapiens, UniProt P00519); assay: Abl kinase cross-reactivity assay; type: biochemical
Procedure: as §1

Ire1 = assay: Summary statement of Ire1 activation or inhibition (assay not specified)
[1] = tested on: XBP1-GFP reporter in Hek293-FT cells; assay: FACS on Hek293-FT cells transfected with XBP1-GFP reporter; type: cell-based; conditions: treated for 24 hrs
Procedure: Exemplary compounds were assayed and the results are set froth in the table below.

[2] = tested on: Xbp-1 mRNA splicing (UPR activation through Ire1) in HEK293 cells; assay: XBP-1 mRNA splicing by RT-PCR in HEK293 cells (UPR); type: cell-based, mammalian; conditions: for % splicing mRNA XBP-I Average: Hek293 cells treated for 4 hrs, RT-PCR
Procedure: The effect of tunicamycin, SU11248, DJM2005, APY24, and APY29 on Ire1 activity was tested in mammalian cells using HEK293 cells as a model system. Cells were treated according to the methods described in Lin J H et al., Science 318:944 (2007). After treatment with the corresponding agents for the indicated time, Xbp-1 mRNA splicing was determined by RT-PCR. Unspliced (u) and spliced (s) Xbp1-mRNA products are indicated and serve as a measure of UPR activation through Ire1.
Exemplary compounds were assayed for their effect on UPR. Results are set forth in FIGS. 18-19 and in the table below.

Ire1KR32 = molecular target: T1, Ire1KR32 (Saccharomyces cerevisiae, UniProt P32361); assay: RNase cleavage assay with Ire1 cytosolic constructs (Ire1KR32), co-factors and kinase inhibitors; type: biochemical; conditions: for activation of the RNase of Ire1KR32: FIG. 3A
T1 construct: Overview of the Ire1 constructs; GST (N); made in house; host or cells: E. coli BL21 CodonPlus (RIPL)
T1 sequence (P32361 with tags, fused parts or gaps): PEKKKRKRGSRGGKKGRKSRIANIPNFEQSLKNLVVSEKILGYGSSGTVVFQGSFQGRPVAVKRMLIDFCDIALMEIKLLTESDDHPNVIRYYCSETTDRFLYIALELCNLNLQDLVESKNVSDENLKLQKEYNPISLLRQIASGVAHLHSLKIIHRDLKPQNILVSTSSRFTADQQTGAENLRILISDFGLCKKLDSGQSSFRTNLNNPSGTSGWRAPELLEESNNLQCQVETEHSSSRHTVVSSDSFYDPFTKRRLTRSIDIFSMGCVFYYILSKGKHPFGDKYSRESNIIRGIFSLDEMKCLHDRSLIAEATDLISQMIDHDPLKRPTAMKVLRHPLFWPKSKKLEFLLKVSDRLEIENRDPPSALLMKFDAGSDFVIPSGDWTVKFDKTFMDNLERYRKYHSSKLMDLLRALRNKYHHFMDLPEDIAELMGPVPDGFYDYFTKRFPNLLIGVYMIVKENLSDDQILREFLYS
Procedure: as §2
Variants of the cytosolic portion of Ire1 that contain the kinase and the RNase domains (Ire1KR) and Ire1KR extended by 24 (Ire1KR24) or 32 (Ire1KR32) amino acids towards the N-terminus (FIG. 1A, FIG. 1C, FIG. 7) were prepared. These additional amino acid extensions are part of a ˜100 amino acid-long linker domain that tethers the kinase/RNase domains to the transmembrane domain. All three constructs cleaved site-specifically 5′-32p-labeled stem-loop oligoribonucleotides 14 derived from the XBP1 mRNA (FIG. 1B, FIG. 8). […] No ADP.Mg co-factor was required for the cooperative activation of the RNase.
Ire1KR32 was co-crystallized with inhibitors that were designed to target CDK2 and EGFR kinases. Certain kinase inhibitors fully activated the RNase function of Ire1 (FIG. 3A). This is the first example of wild-type Ire1 activation by synthetic compounds.
Crystals obtained with the inhibitor APY29 allowed the structure determination of the Ire1KR32-APY29 complex at 3.9 Å resolution. A well-resolved density for the inhibitor molecule was found in the ATP binding pocket of the Ire1 kinase domain (FIG. 3B). APY29 forms an extensive hydrogen-bonding network with the protein backbone formed by E746, L747, and C748 (FIG. 3C). Hydrogen bonds are likely to also form with two side chains at the active site, N751, and D828. […] Manual fitting of sunitinib guided by know structures of kinase.inhibitor complexes (e.g., PDB IDs 2G9X and 2F4J) predicts that the compound fills the nucleobase site, but not the sugar and the phosphate sub-sites. […] AIN54 could not be readily fit to the ATP pocket due to steric clashes arising partly because of the unusual position of beta strand β1 that covers the nucleotide-binding pocket of the Ire1 kinase.
This structural difference provides an excellent tool to test the role of magnesium in the RNase activity of Ire1. Accordingly, the effect of EDTA on the RNase activity of Ire1KR32 was examined.

yIre1 [3] = molecular target: T2, yIre1 (Saccharomyces cerevisiae, UniProt P32361); assay: RNA cleavage-based yIre1 activation assay; type: biochemical, yeast; parameters: unit not given here; conditions: 3 μM yIre1, stem loop RNA, 15 μM effector
T2 construct: GST (N); made in house; host or cells: E. coli BL21 CodonPlus (RIPL)
T2 sequence (P32361 with tags, fused parts or gaps limits assumed): T1 sequence (P32361 with tags, fused parts or gaps)
Procedure: The RNase Cleavage Assay.
as §2
RNA cleavage can be used to assess yIre1 activation as shown by FIG. 20 and the table below (3 μM yIre1, stem loop RNA, 15 μM effector): […]

yIre1 [4] = molecular target: T2, yIre1; assay: RNA cleavage-based yIre1 inhibition assay with pre-activated purified Ire1; type: biochemical, yeast; conditions: 1.5 μM yIre1, 100 μM ADP-2 mM Mg, 30 μM effector (FIG. 21A)
Procedure: FIGS. 21A and B. A. RNA cleavage-based yIre1 inhibition assay with purified Ire1 under conditions that have pre-activated Ire1. […] Thus, some APY compounds could serve as both Ire1 RNase inhibitors or Ire1 RNase activators, depending on the experimental setting.
as §2, with “RNA cleavage reactions were conducted at 30° C. in buffer containing 20 mM HEPES (pH 7.5), 70 mM NaCl, 2 mM ADP (pH 7.0), 2 mM Mg(OAc)2, 5 mM DTT, 5% glycerol, less than 1 nM ^32p-labeled RNA substrate, and 3 nM-20 μM Ire1.” left out
An RNA cleavage inhibition assay was also performed with exemplary compounds as shown by FIG. 21A (1.5 μM yIre1 mm loop RNA, 100 μM ADP-2 mM Mg, 30 μM effector).

Sequence of WT Src (P12931 whole entry): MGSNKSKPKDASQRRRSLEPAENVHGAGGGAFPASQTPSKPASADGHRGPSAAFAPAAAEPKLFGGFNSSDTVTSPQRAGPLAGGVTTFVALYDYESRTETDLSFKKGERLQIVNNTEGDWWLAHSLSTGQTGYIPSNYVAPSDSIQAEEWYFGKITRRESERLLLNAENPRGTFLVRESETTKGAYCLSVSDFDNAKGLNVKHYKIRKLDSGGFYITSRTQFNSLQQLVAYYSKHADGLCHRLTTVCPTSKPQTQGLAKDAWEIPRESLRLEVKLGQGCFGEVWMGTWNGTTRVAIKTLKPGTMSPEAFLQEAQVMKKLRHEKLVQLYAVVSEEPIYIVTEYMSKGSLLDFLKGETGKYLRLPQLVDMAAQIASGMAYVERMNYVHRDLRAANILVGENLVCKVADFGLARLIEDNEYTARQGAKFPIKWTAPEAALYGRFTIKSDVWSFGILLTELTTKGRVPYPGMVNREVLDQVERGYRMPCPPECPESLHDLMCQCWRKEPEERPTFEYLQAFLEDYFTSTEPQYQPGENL
Sequence of human Ire1 (O75460 19-977): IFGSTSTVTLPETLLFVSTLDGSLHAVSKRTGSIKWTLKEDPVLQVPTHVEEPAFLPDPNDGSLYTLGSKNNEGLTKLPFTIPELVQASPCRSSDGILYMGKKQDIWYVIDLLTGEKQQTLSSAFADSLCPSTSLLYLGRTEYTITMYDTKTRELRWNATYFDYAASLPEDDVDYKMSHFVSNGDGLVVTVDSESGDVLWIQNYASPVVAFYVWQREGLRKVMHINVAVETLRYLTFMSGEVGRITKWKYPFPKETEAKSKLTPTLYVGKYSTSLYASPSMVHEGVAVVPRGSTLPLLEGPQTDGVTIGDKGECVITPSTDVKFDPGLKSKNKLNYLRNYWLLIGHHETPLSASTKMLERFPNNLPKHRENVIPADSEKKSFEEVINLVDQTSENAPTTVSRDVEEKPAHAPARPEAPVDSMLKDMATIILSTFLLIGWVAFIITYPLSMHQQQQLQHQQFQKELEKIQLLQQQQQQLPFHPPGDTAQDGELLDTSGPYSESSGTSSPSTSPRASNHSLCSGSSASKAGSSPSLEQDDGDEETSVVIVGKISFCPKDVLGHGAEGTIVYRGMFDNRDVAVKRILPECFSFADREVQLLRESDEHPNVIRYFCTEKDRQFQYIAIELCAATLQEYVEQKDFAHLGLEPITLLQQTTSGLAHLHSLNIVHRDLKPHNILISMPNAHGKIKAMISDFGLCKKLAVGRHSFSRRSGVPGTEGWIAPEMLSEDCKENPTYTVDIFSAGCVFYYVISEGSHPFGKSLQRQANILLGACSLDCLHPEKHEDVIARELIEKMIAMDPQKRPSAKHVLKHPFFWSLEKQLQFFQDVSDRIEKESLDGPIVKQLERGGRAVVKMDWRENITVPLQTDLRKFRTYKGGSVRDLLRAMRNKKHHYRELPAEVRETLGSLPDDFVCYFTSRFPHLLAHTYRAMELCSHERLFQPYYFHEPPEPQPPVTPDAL
Sequence of WT Abl (P00519 whole entry): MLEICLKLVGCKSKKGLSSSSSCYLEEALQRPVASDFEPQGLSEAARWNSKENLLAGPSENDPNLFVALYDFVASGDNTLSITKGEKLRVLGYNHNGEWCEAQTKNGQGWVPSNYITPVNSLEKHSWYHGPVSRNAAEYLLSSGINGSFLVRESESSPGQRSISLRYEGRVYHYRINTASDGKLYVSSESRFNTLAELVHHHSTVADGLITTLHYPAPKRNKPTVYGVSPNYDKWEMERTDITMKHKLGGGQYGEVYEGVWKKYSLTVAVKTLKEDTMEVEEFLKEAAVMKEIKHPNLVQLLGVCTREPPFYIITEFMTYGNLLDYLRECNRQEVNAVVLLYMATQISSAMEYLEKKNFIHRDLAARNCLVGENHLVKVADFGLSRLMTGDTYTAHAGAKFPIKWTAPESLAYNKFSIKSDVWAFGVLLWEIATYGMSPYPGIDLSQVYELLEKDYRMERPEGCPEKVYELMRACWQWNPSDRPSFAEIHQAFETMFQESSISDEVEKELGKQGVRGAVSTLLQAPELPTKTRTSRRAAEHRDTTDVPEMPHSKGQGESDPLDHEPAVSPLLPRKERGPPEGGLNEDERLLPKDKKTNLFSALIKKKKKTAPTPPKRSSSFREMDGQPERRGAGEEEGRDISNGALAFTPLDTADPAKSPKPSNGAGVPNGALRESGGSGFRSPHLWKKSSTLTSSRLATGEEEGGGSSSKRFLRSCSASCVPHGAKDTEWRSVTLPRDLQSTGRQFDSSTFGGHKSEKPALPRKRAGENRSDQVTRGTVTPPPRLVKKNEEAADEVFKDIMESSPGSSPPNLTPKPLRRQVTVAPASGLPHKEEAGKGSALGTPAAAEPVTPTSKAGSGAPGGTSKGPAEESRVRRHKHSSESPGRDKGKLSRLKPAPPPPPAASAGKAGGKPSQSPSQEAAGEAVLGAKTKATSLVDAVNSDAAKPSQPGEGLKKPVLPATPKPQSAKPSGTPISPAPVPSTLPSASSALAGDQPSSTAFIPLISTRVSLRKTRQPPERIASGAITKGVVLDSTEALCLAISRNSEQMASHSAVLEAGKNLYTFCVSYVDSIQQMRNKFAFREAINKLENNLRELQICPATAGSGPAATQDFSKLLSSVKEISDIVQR

O=C(Nc1ccc(Nc2nccc(Nc3cc(C4CC4)n[nH]3)n2)cc1)c1cccc(C(F)(F)F)c1 [AD74, N-(4-(4-(3-cyclopropyl-1H-pyrazol-5-ylamino)pyrimidin-2-ylamino)phenyl)-3-(trifluoromethyl)benzamide]
IC50 (WT Src): 0.357 µM | In vitro cleavage of 32P-stem-loop RNA by human Ire1 (human Ire1): 0.0877 | IC50 (WT Abl): 2.15 µM | activation of Ire1 (Ire1): significant activation

O=C(Nc1ccc(Nc2nccc(Nc3cc(C4CC4)n[nH]3)n2)cc1)Nc1cccc(C(F)(F)F)c1 [AD75, 1-(4-(4-(3-cyclopropyl-1H-pyrazol-5-ylamino)pyrimidin-2-ylamino)phenyl)-3-(3-(trifluoromethyl)phenyl)urea]
IC50 (WT Src): 0.17 µM | In vitro cleavage of 32P-stem-loop RNA by human Ire1 (human Ire1): 0.2317 | IC50 (WT Abl): 2.43 µM | activation of Ire1 (Ire1): significant activation

O=C(Nc1cccc(Nc2nccc(Nc3cc(C4CC4)n[nH]3)n2)c1)c1cccc(C(F)(F)F)c1 [AD76, N-(3-(4-(3-cyclopropyl-1H-pyrazol-5-ylamino)pyrimidin-2-ylamino)phenyl)-3-(trifluoromethyl)benzamide]
IC50 (WT Src): 0.138 µM | In vitro cleavage of 32P-stem-loop RNA by human Ire1 (human Ire1): 0.0139 | IC50 (WT Abl): 4.96 µM | activation of Ire1 (Ire1): significant activation

O=C(Nc1cccc(Nc2nccc(Nc3cc(C4CC4)n[nH]3)n2)c1)Nc1cccc(C(F)(F)F)c1 [AD77, 1-(3-(4-(3-cyclopropyl-1H-pyrazol-5-ylamino)pyrimidin-2-ylamino)phenyl)-3-(3-(trifluoromethyl)phenyl)urea]
IC50 (WT Src): 0.442 µM | In vitro cleavage of 32P-stem-loop RNA by human Ire1 (human Ire1): 0.0239 | IC50 (WT Abl): 36.8 µM | activation of Ire1 (Ire1): significant activation

N#CCc1ccc(Nc2nccc(Nc3cc(C4CC4)[nH]n3)n2)cc1 [APY24]
% fold induction to Control ([1]; Tm 0.3 ug/ml + compound 2 uM): −2% | Mean fluorescence ([1]; Tm 0.3 ug/ml + compound 2 uM): 2387 | % fold induction to Control ([1]; compound 2 uM): 6% | Mean fluorescence ([1]; compound 2 uM): 2569 | % splicing mRNA XBP-I Average ([2]; Tm 0.3 ug/ml + compound 2 μM): 28% | % splicing mRNA XBP-I Average ([2]; compound 2 μM): 30% | % splicing mRNA XBP-I Average ([2]; compound 10 μM): 44% | in vivo activation of Ire1 ([2]; summary statement): significant in vivo activation | activation of the RNase of Ire1KR32 (Ire1KR32): Potent activators | RNA cleavage (yIre1 activation) (yIre1 [3]): 0.04667 | activation of Ire1 (Ire1): significant activation

c1cc(Nc2cc(C3CC3)[nH]n2)nc(Nc2ccc3[nH]cnc3c2)n1 [APY29]
% fold induction to Control ([1]; Tm 0.3 ug/ml + compound 2 uM): 65% | Mean fluorescence ([1]; Tm 0.3 ug/ml + compound 2 uM): 4016 | % fold induction to Control ([1]; compound 2 uM): 11% | Mean fluorescence ([1]; compound 2 uM): 2697 | % splicing mRNA XBP-I Average ([2]; Tm 0.3 ug/ml + compound 2 μM): 40% | % splicing mRNA XBP-I Average ([2]; compound 2 μM): 10% | % splicing mRNA XBP-I Average ([2]; compound 10 μM): 14% | activation of the RNase of Ire1KR32 (Ire1KR32): Potent activators | effect of EDTA (chelation of magnesium) on RNase activity of Ire1KR32 stimulated by the substance (Ire1KR32; FIG. 3F): remained unchanged | RNA cleavage (yIre1 activation) (yIre1 [3]): 0.07509 | activation of Ire1 (Ire1): significant activation

Cc1cc(Nc2cc(C3CCCCC3)n[nH]2)nc(Nc2ccc(CC#N)cc2)n1 [APY81]
% splicing mRNA XBP-I Average ([2]; Tm 0.3 ug/ml + compound 2 μM): 7% | % splicing mRNA XBP-I Average ([2]; compound 2 μM): 11% | % splicing mRNA XBP-I Average ([2]; compound 10 μM): 16% | RNA cleavage (yIre1 activation) (yIre1 [3]): 0.001872 | inhibition of Ire1 RNase (yIre1 [4]): inhibit Ire1 | inhibition of Ire1 (Ire1): significant inhibition
